Source: ChEMBL document CHEMBL1149228, “Analysis of structure-activity relationships for the 'B-region' of N-(3-acyloxy-2-benzylpropyl)-N(')-[4-(methylsulfonylamino)benzyl]thiourea analogues as vanilloid receptor antagonists: discovery of an N-hydroxythiourea analogue with potent analgesic activity” (Bioorg Med Chem Lett, 2004)

Legend:
[1] = target: T1, Transient receptor potential cation channel subfamily V member 1 (Rattus norvegicus, UniProt O35433); assay: Agonist effect on 45 [Ca2+] influx in vanilloid receptor expressing CHO cells relative to maximal capsaicin (300 nM) response, weak effect at 30 µM
T1 sequence (O35433 whole entry): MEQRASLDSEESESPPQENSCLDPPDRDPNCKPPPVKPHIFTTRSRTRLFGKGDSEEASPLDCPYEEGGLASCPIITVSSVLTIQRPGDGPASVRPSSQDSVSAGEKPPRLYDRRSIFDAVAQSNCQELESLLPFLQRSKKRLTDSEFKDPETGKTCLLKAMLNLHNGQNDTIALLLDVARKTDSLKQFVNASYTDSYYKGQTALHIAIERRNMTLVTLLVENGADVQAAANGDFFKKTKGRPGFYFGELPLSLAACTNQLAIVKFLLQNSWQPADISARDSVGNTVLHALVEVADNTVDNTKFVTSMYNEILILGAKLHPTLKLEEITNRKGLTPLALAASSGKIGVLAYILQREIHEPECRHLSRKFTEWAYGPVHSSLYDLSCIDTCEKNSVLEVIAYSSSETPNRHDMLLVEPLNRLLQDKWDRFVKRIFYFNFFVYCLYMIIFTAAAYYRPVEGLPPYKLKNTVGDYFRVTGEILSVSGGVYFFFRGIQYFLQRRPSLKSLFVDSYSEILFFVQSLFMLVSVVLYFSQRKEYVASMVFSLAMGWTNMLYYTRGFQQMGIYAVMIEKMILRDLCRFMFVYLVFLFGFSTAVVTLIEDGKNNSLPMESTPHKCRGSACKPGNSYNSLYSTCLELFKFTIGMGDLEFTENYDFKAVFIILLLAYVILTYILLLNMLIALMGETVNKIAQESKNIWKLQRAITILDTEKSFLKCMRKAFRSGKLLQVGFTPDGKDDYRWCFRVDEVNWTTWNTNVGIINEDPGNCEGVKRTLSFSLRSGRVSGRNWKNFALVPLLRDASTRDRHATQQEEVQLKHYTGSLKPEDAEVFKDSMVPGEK

[2] = target: T1, Transient receptor potential cation channel subfamily V member 1; assay: Binding affinity towards rat vanilloid receptor subtype 1 expressed in CHO cells by [3H]RTX displacement.; format: cell-based
[3] = target: Transient receptor potential cation channel subfamily V member 1 (Rattus norvegicus) (UniProt O35433); assay: Agonist-induced 45 [Ca2+] influx relative to 300 nM capsaicin in vanilloid receptor expressing CHO cells
Chain of Transient receptor potential cation channel subfamily V member 1 (Rattus norvegicus) (O35433 whole entry): as above

[4] = target: T1, Transient receptor potential cation channel subfamily V member 1; assay: In vitro antagonist effect against 50 nM capsaicin-induced 45 [Ca2+] influx in vanilloid receptor expressing CHO cells; format: functional, cell-based
[5] = target: T1, Transient receptor potential cation channel subfamily V member 1; assay: In vitro antagonist effect against 50 nM capsaicin-induced 45 [Ca2+] influx in vanilloid receptor expressing CHO cells (ineffective); format: functional, cell-based
[6] = target: T1, Transient receptor potential cation channel subfamily V member 1; assay: Agonist effect on 45 [Ca2+] influx in vanilloid receptor expressing CHO cells relative to maximal capsaicin (300 nM) response (ineffective); format: functional, cell-based
[7] = target: Transient receptor potential cation channel subfamily V member 1 (Rattus norvegicus) (UniProt O35433); assay: Inhibition of […] nM capsaicin-induced 45 [Ca2+] uptake in vanilloid receptor expressing CHO cells; format: functional, cell-based
[8] = target: Transient receptor potential cation channel subfamily V member 1 (Rattus norvegicus) (UniProt O35433); assay: Inhibition of […] nM capsaicin-induced 45 [Ca2+] influx in vanilloid receptor expressing CHO cells; format: functional, cell-based
[9] = target: T1, Transient receptor potential cation channel subfamily V member 1; assay: Agonist effect on 45 [Ca2+] influx in vanilloid receptor expressing CHO cells relative to maximal capsaicin (300 nM) response; format: functional, cell-based

| EC50 ([1]; cho) | Ki [2] | agonist efficacy [3] | IC50 [4] | IC50 [5] | SMILES | further results |
| --- | --- | --- | --- | --- | --- | --- |
| Partially active | 405 nM | 13% | 10100 nM | – | CC(C)(C)C(=O)OCC(Cc1ccc(C(C)(C)C)cc1)CN(O)/C(S)=N/Cc1ccc(NS(C)(=O)=O)c(F)c1 (centres undefined) | – |
| – | – | – | – | Not Active | COc1cc(C/N=C(\S)NCC(COC(=O)C(C)(C)C)Cc2ccc(C)c(C)c2)ccc1NS(C)(=O)=O (centres undefined) | – |
| – | – | – | 7.8 nM | – | Cc1ccc(CC(CNC(=S)NCc2ccc(NS(C)(=O)=O)c(F)c2)COC(=O)C(C)(C)C)cc1C (centres undefined) | EC50 [6]: Not Active |
| – | – | – | – | – | Cc1ccc(CC(COC(=O)C(C)(C)C)CN(O)/C(S)=N/Cc2ccc(NS(C)(=O)=O)c(F)c2)cc1C (centres undefined) | EC50 [6]: Not Active |
| Partially active | – | – | 67 nM | – | Cc1ccc(CC(CN/C(S)=N/Cc2ccc(NS(C)(=O)=O)cc2)COC(=O)C(C)(C)C)cc1C (centres undefined) | – |
| Partially active | 336 nM | 11% | 440 nM | – | Cc1ccc(CC(CNC(=S)OCc2ccc(NS(C)(=O)=O)cc2)COC(=O)C(C)(C)C)cc1C (centres undefined) | inhibition [7]: 79% |
| Partially active | 22.6 nM | 5% | 52 nM | – | CC(C)(C)C(=O)OCC(CNC(=S)NCc1ccc(NS(C)(=O)=O)c(F)c1)Cc1ccc(C(C)(C)C)cc1 (centres undefined) | – |
| – | 220 nM | – | 757 nM | – | Cc1ccc(CC(COC(=O)C(C)(C)C)CN(O)/C(S)=N/Cc2ccc(NS(C)(=O)=O)cc2Cl)cc1C (centres undefined) | EC50 [6]: Not Active |
| Partially active | – | 12% | 331 nM | – | Cc1ccc(CC(CNC(=S)N(O)Cc2ccc(NS(C)(=O)=O)cc2)COC(=O)C(C)(C)C)cc1C (centres undefined) | – |
| Partially active | 210 nM | 7.5% | 170 nM | – | Cc1ccc(CC(CNC(=S)OCc2ccc(NS(C)(=O)=O)c(F)c2)COC(=O)C(C)(C)C)cc1C (centres undefined) | – |
| Partially active | – | 12% | – | – | Cc1ccc(CC(COC(=O)C(C)(C)C)CN(O)/C(S)=N/Cc2ccc(NS(C)(=O)=O)cc2)cc1C (centres undefined) | – |
| Partially active | 500 nM | 5.6% | 460 nM | – | Cc1ccc(CC(CNC(=O)Cc2ccc(NS(C)(=O)=O)cc2)COC(=O)C(C)(C)C)cc1C (centres undefined) | – |
| Partially active | – | – | – | Not Active | Cc1ccc(CC(COC(=O)C(C)(C)C)CN(O)/C(S)=N/Cc2ccc(NS(C)(=O)=O)cc2F)cc1C (centres undefined) | – |
| Partially active | 74 nM | 7% | 440 nM | – | CC(C)(C)C(=O)OCC(CNC(=O)Cc1ccc(NS(C)(=O)=O)c(F)c1)Cc1ccc(C(C)(C)C)cc1 (centres undefined) | inhibition [8]: 56% |
| – | 396 nM | – | – | Not Active | COc1cc(C/N=C(\S)N(O)CC(COC(=O)C(C)(C)C)Cc2ccc(C)c(C)c2)ccc1NS(C)(=O)=O (centres undefined) | EC50 [9]: 809 nM |
| – | 199 nM | – | – | Not Active | COc1cc(CO/C(S)=N/CC(COC(=O)C(C)(C)C)Cc2ccc(C)c(C)c2)ccc1NS(C)(=O)=O (centres undefined) | EC50 ([1]; read-out: EC50): 373 nM |
| Partially active | – | 10% | – | – | Cc1ccc(CC(CNC(=O)Cc2ccc(NS(C)(=O)=O)c(F)c2)COC(=O)C(C)(C)C)cc1C (centres undefined) | inhibition [8]: 65% |
| – | 1980 nM | – | 3600 nM | – | Cc1ccc(CC(COC(=O)Cc2ccc(NS(C)(=O)=O)cc2)COC(=O)C(C)(C)C)cc1C (centres undefined) | EC50 [6]: Not Active |
| – | 430 nM | – | – | Not Active | COc1cc(CC(=O)NCC(COC(=O)C(C)(C)C)Cc2ccc(C)c(C)c2)ccc1NS(C)(=O)=O (centres undefined) | EC50 [9]: 244 nM |
| Partially active | – | – | – | Not Active | Cc1ccc(CC(CNC(=S)N(O)Cc2ccc(NS(C)(=O)=O)c(F)c2)COC(=O)C(C)(C)C)cc1C (centres undefined) | – |
